Paper PMC6066642 (2018)

How the values were obtained:
[1] = test system: hTeloC (DNA, i motif) CCCTAACCCTAACCCTAACCCT; test: CD melting; conditions: Na+ (10 mM sodium phosphate); pH 5.7; 5 equivalents of compound, 10-15 μM DNA
[2] = test system: mutTel24 (DNA, G4) TTGGGTTAGGGTTAGGGTTAGGGA; test: CD melting; conditions: K+ (10 mM potassium phosphate); pH 5.7; 5 equivalents of compound, 10-15 μM DNA
[3] = test system: hTeloCFID (DNA, i motif) TAACCCTAACCCTAACCCTAACCC; test: fluorescent intercalator displacement; conditions: Na+ (10 mM NaH2PO4); pH 5.7; thiazole orange 2 μM displaced
[4] = test system: mutTel24FID (DNA, G4) TTTGGGTTAGGGTTAGGGTTAGGGA; test: fluorescent intercalator displacement; conditions: K+ (10 mM KH2PO4); pH 5.7; thiazole orange 2 μM displaced

SMILES	ΔT1/2 [1]	ΔT1/2 [2]	DC50 [3] [μM]	DC50 [4] [μM]
O=C1c2c(O)ccc(O)c2C(=O)c2c(NCCNCCO)ccc(NCCNCCO)c21	-9.9 ± 0.5 °C	+4.5 ± 0.5 °C	1.34 ± 6.99E-03	0.95 ± 6.07E-03
Cc1cc2c3c([n+](C)c4ccc(F)cc4c3c1)-c1cc(F)ccc1N2C	-0.3 ± 0.5 °C	+20.6 ± 0.5 °C	–	–
NCCOc1cc(C(=O)Nc2cc(OCCN)c3ccccc3n2)nc(C(=O)Nc2cc(OCCN)c3ccccc3n2)c1	+0.8 ± 0.5 °C	+8.8 ± 0.5 °C	18.02 ± 5.89E-02	9.42 ± 3.90E-02

Further lines, results first:

ΔT1/2 [1]	ΔT1/2 [2]	DC50 [3] [μM]	DC50 [4] [μM]	SMILES
-6.8 ± 0.5 °C	+14.4 ± 0.5 °C	0.95 ± 3.79E-03	0.39 ± 1.42E-03	C[n+]1cc(NC(=O)c2ccc3ccc4ccc(C(=O)Nc5cc6ccccc6[n+](C)c5)nc4c3n2)cc2ccccc21
-9.2 ± 0.5 °C	+8.9 ± 0.5 °C	0.87 ± 8.08E-04	0.50 ± 1.95E-03	CN(C)c1ccc(Nc2c3ccc(NC(=O)CCN4CCCC4)cc3nc3cc(NC(=O)CCN4CCCC4)ccc23)cc1
-0.8 ± 0.5 °C	+12.4 ± 0.5 °C	1.46 ± 5.88E-03	1.26 ± 7.22E-03	COc1ccc2cc3[n+](cc2c1OC)CCc1cc2c(cc1-3)OCO2
